Results from PubChem BioAssay AID1626 (SRMLSC, 2009).

Tested on: M. tuberculosis H37Rv growth inhibition
Experiment: M. tuberculosis H37Rv growth inhibitors, H37Rv strain (AID 1626)
Settings: for IC90: measured here: IC90 against H37Rv; for CC50: measured here: Vero cell cytotoxicity

| Compound | IC50 [µM] | IC90 [µM] | CC50 [µM] |
| --- | --- | --- | --- |
| O=C(Nc1cc(C(F)(F)F)cc(C(F)(F)F)c1)Nc1cnn(-c2ccc([N+](=O)[O-])cc2)c1C(F)(F)F | 0.676 | 0.938 | 2.76 |
| CCc1cccc2c1NC(=O)C21N2CCCC2C(C(=O)c2ccc3ccccc3c2)C12C(=O)Nc1ccccc12 (configuration not stated) | 23.8 | > 100 | > 40 |
| O=C(Nc1ncc(Cc2cccc(Cl)c2)s1)C1=NCCN1 | 6.98 | > 100 | > 40 |
| COc1ccc(NC(=O)c2ccc(COCC(F)(F)C(F)F)cc2)cc1 |  | > 100 |  |
| CN(C)CCCNc1cc(C(C)(C)C)nc2c(-c3ccccc3)cnn12 | 3.17 | 4.9 | 9.79 |
| Cc1cc(Oc2ccc(Cl)cc2)nc(-c2ccccn2)n1 | 14.5 | > 100 | 21.1 |
| CCOc1ccc(CN2CCN(CC(O)Cn3c4ccccc4c4ccccc43)CC2)cc1 (configuration not stated) | 4.35 | 6.2 | 13.6 |
| N=C1SCC(=O)N1c1ncc(Cc2cccc(Cl)c2)s1 | < 0.195 | 4.92 | > 40 |
| CCCCCOc1ccc(C(=O)NCC(=O)NCC(=O)OCC)cc1 | 5.74 | 6.53 | > 40 |
| CC1CCCCN1C(=O)COC(=O)/C=C/c1ccc2ccccc2n1 (configuration not stated) | 0.807 | 5.9 | > 40 |
| O=[N+]([O-])c1ccc(O)c(C=Nc2ccc3oc(Cc4ccc(Cl)cc4)nc3c2)c1 | 26.4 | > 100 |  |
| COc1ccc(OCc2nn3c(-c4cccc(OC)c4)nnc3s2)cc1 |  | > 100 |  |
| CCOC(=O)c1cn[nH]c1N |  | > 100 |  |
| O=C(c1cnc(N2CCN(c3ccccn3)CC2)c2ccccc12)N1CCN(c2cccc(Cl)c2)CC1 | 8.67 | > 100 | > 40 |
| Nc1cnc(-c2ccccc2)nc1Cl | 7.27 | > 100 |  |
| Cc1cc(=O)[nH]c(-n2nc(C)c(Oc3ccccc3O)c2C)n1 | 7.72 | > 100 | > 40 |
| CCOC(=O)COc1ccc2c(=O)c(-c3ccccc3OC)coc2c1 | 1.06 | 2.45 |  |
| CN(C(=O)c1ccco1)c1nc2c(s1)CCCC2 |  |  | > 40 |
| Cc1cccc(N2CCN(C(=O)/C=C/c3cccs3)CC2C)c1 (configuration not stated) | 23.4 | 26.5 |  |
| N=c1c2c(ncn1Cc1ccco1)Oc1c(ccc3ccccc13)C2c1ccccc1 (configuration not stated) | 3.88 | 5.43 | 8.95 |

| Compound | IC50 [µM] | IC90 [µM] | CC50 [µM] |
| --- | --- | --- | --- |
| CCOC(=O)c1ccc(N2CSC3=C(C#N)C(c4cccs4)CC(=O)N3C2)cc1 (configuration not stated) | 30.5 | > 100 |  |
| COC(=O)CSc1ccc(C#N)c(SCC(=O)OC)c1 | 3.27 | 10.4 |  |
| OCCN(/C=N/c1nc(-c2ccc(Br)cc2)cs1)CCO | 31.4 | > 100 |  |
| CSc1nsc(SCC(=O)Nc2ccc(OC(C)=O)cc2)n1 | 2.56 | 3.79 |  |
| Cn1c(COc2cccc3ccccc23)nnc1SCC(=O)OC1CCCCC1 | 2.3 | 6.77 |  |
| CCOC(=O)c1ccc(NC(=O)CSC2=NC(=O)C(CC)C(=O)N2)cc1 (configuration not stated) | 24.3 | > 100 |  |
| O=C1c2ccc3c4c(ccc(c24)C(=O)N1CCCCO)C(=O)N(CCCCO)C3=O | 7.04 | 12.9 | 5.2 |
| CCOC(=O)Cn1c(-c2ccccc2)ccc(C#N)c1=O | 4 | > 100 |  |
| Cc1ccc(-n2cc(CN(C)Cc3ncc[nH]3)c(-c3cccc(C)c3)n2)cc1 | 10.3 | 13.5 | > 40 |
| CCS(=O)(=O)Nc1ccc(-c2cc(-c3ccccc3)c3cc(C)ccc3n2)cc1 | 9.19 | 13.5 | 34.7 |
| O=C1CC(=C(c2ccccc2)c2ccccc2)C(=O)N1CCCCN1CCN(c2cccc(Cl)c2)CC1 | 4.47 | 6.35 | > 40 |
| CN(C)CCCn1c(SCC(=O)Nc2nc(-c3cccc(Br)c3)cs2)nc2ccccc2c1=O | 5.61 | 5.96 | 8.6 |
| c1ccc(CCNc2ccnc3cc4ccccc4cc23)cc1 | 1.5 | 1.69 | 8.57 |
| CCOC(=O)CSc1nc(N)c(C#N)c(-c2cccs2)c1C#N | 1.59 | 3.27 |  |
| Nc1c2c(nc3ccc(Br)cc13)N(C1CCCCC1)CC2 | 8.28 | 11.1 | > 40 |
| CCOC(=O)CSc1nnc(-c2ccc([N+](=O)[O-])cc2)o1 | 0.316 | 3.84 |  |
| CCN(CC)c1ccc(N=Cc2ccc([N+](=O)[O-])o2)cc1 | 8.8 | 45.6 | > 40 |
| Cc1ccc(Nc2c(-c3ccccn3)nc3ccc(C)cn23)cc1 | 1.43 | 1.63 | 1.54 |
| O=c1oc2ccc3ccccc3c2cc1-c1nc2ccccc2o1 | 2.79 | 7.33 |  |
| COc1ccc(OC(=O)CCc2c[nH]c3ccccc23)cc1 | 18.2 | > 100 |  |

| Compound | IC50 [µM] | IC90 [µM] | CC50 [µM] |
| --- | --- | --- | --- |
| O=C(/C=C/c1ccc(Cl)cc1)c1cccnc1 | 2.01 | 4.7 | 28.5 |
| COc1ccc(CN2CCN(CC(O)Cn3c4ccccc4c4ccccc43)CC2)cc1 (configuration not stated) | 5.34 | 8.3 | 15 |
| Cc1[nH]n(-c2ccccc2)c(=O)c1N=Nc1nccs1 | 2.8 | 5.14 | 29.5 |
| CCc1ccc(C2c3[nH]c4ccccc4c3CCN2C(=O)c2cc(C)nn2C)cc1 (configuration not stated) | 22.2 | 31.9 | > 40 |
| Cn1c(O)c(C(=Nc2ccccc2)SCc2ccc(Cl)cc2)c(=O)n(C)c1=O | 5.61 | 6.41 | 21.2 |
| CCCNC(=O)c1nnsc1S(=O)(=O)c1ccc(Cl)cc1 | 25.2 | 28 | 16.2 |
| Cc1ccn2c(Nc3ccccc3C)c(-c3ccccn3)nc2c1 | 1.42 | 1.59 | 3.12 |
| Cc1ccc2c(c1)c1c(n2CC(O)CNC2CCCCC2)CCCC1 (configuration not stated) | 6.83 | 10.2 | 15.1 |
| Cc1cc(Cl)n2c(nc3cc(F)c(F)cc32)c1C#N | 3.98 | 10.5 | 2.29 |
| CNC(=O)c1nnsc1S(=O)(=O)c1ccc(Cl)cc1 | 21.6 | 22.2 | 8.55 |
| Cc1ccc(OCCC(=O)Nc2ccc(C)c(F)c2)cc1 |  | > 100 |  |
| C1=C(CCNc2ncnc3c2[nH]c2ccccc23)CCCC1 | 1.52 | 1.72 | 5.24 |
| Cc1nccc(-c2ccc(-n3c(C)ccc3C)cc2)n1 |  | > 100 | > 40 |
| O=C1OC(/C(=C\Nc2cc(Cl)ccc2O)[N+](=O)[O-])c2ccccc21 (configuration not stated) | 57.2 | > 100 | > 40 |
| Cc1nc(SCc2cccc(F)c2)c2oc3ccccc3c2n1 | 0.588 | 18 |  |
| O=C(Nc1cc(Cl)cc(Cl)c1)N1CCCC1 | 12.2 | 17.6 | > 40 |
| OC(CN1CCN(c2ccccn2)CC1)Cn1c2ccc(Cl)cc2c2cc(Cl)ccc21 (configuration not stated) | 2.31 | 3.12 | 21.5 |
| COc1ccc(Cn2c(SCc3ccc(C)cc3)nc3cc(OC)c(OC)cc3c2=N)cc1Cl | 2.5 | 3.09 | 3.1 |
